In PubChem BioAssay AID258 (DTP/NCI, 2004):
Values joined by “and” are separate entries in the source; they are usually repeats but may differ in a detail not shown here. Equal values may be shown once. Inconclusive results and toxic doses are left out.

Tested on: CD2F1 mice, L1210 leukemia sc, survival T/C
Experiment: NCI In Vivo Anticancer Drug Screen. Data for tumor model L1210 Leukemia (subcutaneous) in CD2F1 (CDF1) mice
Settings: endpoint: median survival time, higher = longer survival
In short: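 Mice with transplanted tumor dosed; survival/tumor size read; T/C vs vehicle controls.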

S=c1nc[nH]c2nc[nH]c12
T/C (dose: 5.0 mg/kg/injection, schedule: Q01DX009 (sc), vehicle: saline with Tween-80): 113 % of control
T/C (dose: 5.0 mg/kg/injection, schedule: Q## X Z (sc), vehicle: other): 111 % of control
T/C (dose: 8.4 mg/kg/injection, schedule: Q01DX Z (sc), vehicle: methylcellulose (MC)): 100 % of control
T/C (dose: 14.0 mg/kg/injection, schedule: Q01DX Z (ip), vehicle: other): 100 % of control
T/C (dose: 14.0 mg/kg/injection, schedule: Q01DX Z (sc), vehicle: methylcellulose (MC)): 100 % of control
T/C (dose: 14.0 mg/kg/injection, schedule: Q01DX Z (sc), vehicle: other): 100 % of control
T/C (dose: 14.0 mg/kg/injection, schedule: Q## X Z (sc), vehicle: other): 172 % of control
T/C (dose: 14.0 mg/kg/injection, schedule: Q#A X Z (sc), vehicle: other): 111 % of control
T/C (dose: 20.0 mg/kg/injection, schedule: Q01DX009 (sc), vehicle: saline with Tween-80): 167 % of control
T/C (dose: 23.0 mg/kg/injection, schedule: Q01DX Z (ip), vehicle: other): 100 % of control
T/C (dose: 23.0 mg/kg/injection, schedule: Q01DX Z (oral), vehicle: other): 110 % of control
T/C (dose: 23.0 mg/kg/injection, schedule: Q01DX Z (sc), vehicle: methylcellulose (MC)): 109 % of control and 110 % of control
T/C (dose: 23.0 mg/kg/injection, schedule: Q02DX Z (sc), vehicle: other): 100 % of control
T/C (dose: 23.0 mg/kg/injection, schedule: Q## X Z (sc), vehicle: other): 161 % of control
T/C (dose: 23.0 mg/kg/injection, schedule: Q#A X Z (sc), vehicle: other): 105 % of control
T/C (dose: 25.0 mg/kg/injection, schedule: Q01DX Z (sc), vehicle: other): 112 % of control
T/C (dose: 39.0 mg/kg/injection, schedule: Q01DX001 (sc), vehicle: other): 100 % of control
T/C (dose: 39.0 mg/kg/injection, schedule: Q01DX Z (ip), vehicle: other): 100 % of control
T/C (dose: 39.0 mg/kg/injection, schedule: Q01DX Z (oral), vehicle: other): 110 % of control
T/C (dose: 39.0 mg/kg/injection, schedule: Q02DX Z (sc), vehicle: other): 111 % of control
T/C (dose: 39.0 mg/kg/injection, schedule: Q07DX Z (sc), vehicle: other): 111 % of control
T/C (dose: 39.0 mg/kg/injection, schedule: Q#A X Z (sc), vehicle: other): 166 % of control
T/C (dose: 40.0 mg/kg/injection, schedule: Q01DX009 (sc), vehicle: saline with Tween-80): 151 % of control
T/C (dose: 46.8 mg/kg/injection, schedule: Q01DX Z (sc), vehicle: other): 122 % of control
T/C (dose: 50.0 mg/kg/injection, schedule: Q01DX Z (sc), vehicle: other): 175 % of control
T/C (dose: 65.0 mg/kg/injection, schedule: Q01DX001 (sc), vehicle: other): 105 % of control
T/C (dose: 65.0 mg/kg/injection, schedule: Q01DX Z (sc), vehicle: methylcellulose (MC)): 165 % of control
T/C (dose: 65.0 mg/kg/injection, schedule: Q02DX Z (sc), vehicle: other): 111 % of control
T/C (dose: 65.0 mg/kg/injection, schedule: Q07DX Z (sc), vehicle: other): 111 % of control
T/C (dose: 65.0 mg/kg/injection, schedule: Q## X Z (sc), vehicle: other): 111 % of control
T/C (dose: 65.0 mg/kg/injection, schedule: Q#A X Z (sc), vehicle: other): 177 % of control
T/C (dose: 78.0 mg/kg/injection, schedule: Q01DX Z (sc), vehicle: other): 194 % of control
T/C (dose: 80.0 mg/kg/injection, schedule: Q01DX009 (sc), vehicle: saline with Tween-80): 110 % of control
T/C (dose: 100.0 mg/kg/injection, schedule: Q01DX Z (sc), vehicle: other): 162 % of control
T/C (dose: 108.0 mg/kg/injection, schedule: Q01DX001 (sc), vehicle: other): 122 % of control
T/C (dose: 108.0 mg/kg/injection, schedule: Q01DX Z (ip), vehicle: other): 175 % of control
T/C (dose: 108.0 mg/kg/injection, schedule: Q01DX Z (oral), vehicle: other): 170 % of control
T/C (dose: 108.0 mg/kg/injection, schedule: Q02DX Z (sc), vehicle: other): 200 % of control
T/C (dose: 108.0 mg/kg/injection, schedule: Q07DX Z (sc), vehicle: other): 122 % of control
T/C (dose: 108.0 mg/kg/injection, schedule: Q## X Z (sc), vehicle: other): 111 % of control
T/C (dose: 130.0 mg/kg/injection, schedule: Q01DX Z (sc), vehicle: other): 177 % of control
T/C (dose: 160.0 mg/kg/injection, schedule: Q01DX009 (sc), vehicle: saline with Tween-80): 89 % of control
T/C (dose: 180.0 mg/kg/injection, schedule: Q01DX001 (sc), vehicle: other): 122 % of control
T/C (dose: 180.0 mg/kg/injection, schedule: Q01DX Z (sc), vehicle: methylcellulose (MC)): 118 % of control
T/C (dose: 180.0 mg/kg/injection, schedule: Q02DX Z (sc), vehicle: other): 172 % of control
T/C (dose: 180.0 mg/kg/injection, schedule: Q07DX Z (sc), vehicle: other): 122 % of control
T/C (dose: 180.0 mg/kg/injection, schedule: Q## X Z (sc), vehicle: other): 122 % of control
T/C (dose: 216.0 mg/kg/injection, schedule: Q01DX Z (sc), vehicle: other): 166 % of control
T/C (dose: 300.0 mg/kg/injection, schedule: Q01DX001 (sc), vehicle: other): 111 % of control
T/C (dose: 300.0 mg/kg/injection, schedule: Q01DX Z (sc), vehicle: other): 150 % of control
